These results are taken from PubChem BioAssay AID1259407 (Chemical Carcinogenesis Research Information System (CCRIS), 2018).

Molecules are shown by their SMILES. The source made the active and inactive calls. How the calls were made is not given here.

In the data set the test system is CCRIS mutagenicity, Ames/micronucleus/aberration tests. As to the kind of experiment: CCRIS mutagenicity studies.
[1] abbreviates: Test System: AMES SALMONELLA TYPHIMURIUM, Strain/Indicator: TA98, Metabolic Activation: NONE, Method: PREINCUBATION
The mark [2] stands for this setting: Test System: AMES SALMONELLA TYPHIMURIUM, Strain/Indicator: TA100, Metabolic Activation: NONE, Method: PREINCUBATION
[3] abbreviates: Test System: AMES SALMONELLA TYPHIMURIUM, Strain/Indicator: TA98, Metabolic Activation: NONE, Method: STANDARD PLATE.
Setting [4] is: Test System: AMES SALMONELLA TYPHIMURIUM, Strain/Indicator: TA100, Metabolic Activation: NONE, Method: STANDARD PLATE.

With `Cc1cc2ccccc2c2ccc3c(c12)C=CC(=O)C3=O`, the mutagenic call reads like this: (Test System: AMES SALMONELLA TYPHIMURIUM, Strain/Indicator: TA97A, Metabolic Activation: NONE, Method: PREINCUBATION) “active; positive”; under setting [1], “inactive; negative”; under setting [2], “active; positive”; (Test System: AMES SALMONELLA TYPHIMURIUM, Strain/Indicator: TA102, Metabolic Activation: NONE, Method: PREINCUBATION) “inactive; negative”; (Test System: AMES SALMONELLA TYPHIMURIUM, Strain/Indicator: TA104, Metabolic Activation: NONE, Method: PREINCUBATION) “inactive; negative”.

With `Cc1cc2c3c(cccc3c1)-c1cc3ccccc3cc1-2`, under “Test System: AMES SALMONELLA TYPHIMURIUM, Strain/Indicator: TA100, Metabolic Activation: RAT, LIVER, S-9, AROCLOR 1254”, the mutagenic call was “active; positive”.

Consider `CC1(C)CC2=C(C=O)[C@]3(C=O)C[C@]3(C)[C@@H](O)[C@@H]2C1`, for which the mutagenic call is, setting by setting: under setting [3], “inactive; negative”; under setting [4], “inactive; negative”; (Test System: AMES SALMONELLA TYPHIMURIUM, Strain/Indicator: TA2637, Metabolic Activation: NONE, Method: STANDARD PLATE) “inactive; negative”.

For the compound `C=CC(=O)OCC(CC)(COC(=O)C=C)COC(=O)C=C`, the mutagenic call is, setting by setting: (End Point: In vivo micronucleus, Test System: Peripheral blood normochromatic erythrocytes, Species: Mouse, Strain/Sex: B6C3F1/Female, Route: Dermal) “inactive; negative”; (End Point: In vivo micronucleus, Test System: Peripheral blood normochromatic erythrocytes, Species: Mouse, Strain/Sex: B6C3F1/Male, Route: Dermal) “inactive; negative”; (End Point: In vivo micronucleus, Test System: Peripheral blood normochromatic erythrocytes, Species: Mouse, Strain/Sex: FVB.N/TgN (v-Ha-ras) Tg.AC hemizygous/Female, Route: Dermal) “inactive; negative, purity 80%”; (End Point: In vivo micronucleus, Test System: Peripheral blood normochromatic erythrocytes, Species: Mouse, Strain/Sex: FVB.N/TgN (v-Ha-ras) Tg.AC hemizygous/Male, Route: Dermal) “inactive; negative”; (Test System: AMES SALMONELLA TYPHIMURIUM, Strain/Indicator: TA98, Metabolic Activation: HAMSTER, LIVER, S-9, AROCLOR 1254, Method: STANDARD PLATE) “inactive; negative”; under setting [3], “inactive; negative”. For the same compound, the mutagenic call is “inactive; negative” (Test System: AMES SALMONELLA TYPHIMURIUM, Strain/Indicator: TA98, Metabolic Activation: RAT, LIVER, S-9, AROCLOR 1254, Method: STANDARD PLATE); “inactive; negative” (Test System: AMES SALMONELLA TYPHIMURIUM, Strain/Indicator: TA100, Metabolic Activation: HAMSTER, LIVER, S-9, AROCLOR 1254, Method: STANDARD PLATE); “inactive; negative” under setting [4]; “inactive; negative” (Test System: AMES SALMONELLA TYPHIMURIUM, Strain/Indicator: TA100, Metabolic Activation: RAT, LIVER, S-9, AROCLOR 1254, Method: STANDARD PLATE); “active; positive” (Test System: AMES SALMONELLA TYPHIMURIUM, Strain/Indicator: TA1535, Metabolic Activation: HAMSTER, LIVER, S-9, AROCLOR 1254 (5-20%), Method: STANDARD PLATE); “active; positive” (Test System: AMES SALMONELLA TYPHIMURIUM, Strain/Indicator: TA1535, Metabolic Activation: HAMSTER, LIVER, S-9, AROCLOR 1254, Method: STANDARD PLATE). In addition, the mutagenic call runs as follows: (Test System: AMES SALMONELLA TYPHIMURIUM, Strain/Indicator: TA1535, Metabolic Activation: NONE, Method: STANDARD PLATE) “inactive; negative”; (Test System: AMES SALMONELLA TYPHIMURIUM, Strain/Indicator: TA1537, Metabolic Activation: HAMSTER, LIVER, S-9, AROCLOR 1254, Method: STANDARD PLATE) “inactive; negative”; (Test System: AMES SALMONELLA TYPHIMURIUM, Strain/Indicator: TA1537, Metabolic Activation: NONE, Method: STANDARD PLATE) “inactive; negative”; (Test System: AMES SALMONELLA TYPHIMURIUM, Strain/Indicator: TA1537, Metabolic Activation: RAT, LIVER, S-9, AROCLOR 1254, Method: STANDARD PLATE) “inactive; negative”; (Test System: CHINESE HAMSTER OVARY, Strain/Indicator: CHO-K1-BH4 (HGPRT)/6-THIOGUANINE, Metabolic Activation: NONE, Method: SUSPENSION/PLATE) “inactive; negative”; (Test System: CHINESE HAMSTER OVARY, Strain/Indicator: CHO-K1-BH4 (HGPRT), Metabolic Activation: NONE) “active; positive”. Moreover, the mutagenic call reads like this: (Test System: CHINESE HAMSTER OVARY, Strain/Indicator: CHO-K1-BH4 (HGPRT), Metabolic Activation: NONE, Method: MONOLAYER) “inactive; negative”; (Test System: CHINESE HAMSTER OVARY, Strain/Indicator: CHO-K1-BH4 (HGPRT), Metabolic Activation: NONE, Method: SUSPENSION/PLATE) “active; positive”; (Test System: MOUSE LYMPHOMA, Strain/Indicator: L5178Y (TK+/TK-), Metabolic Activation: RAT, LIVER, S-9, AROCLOR 1254, Method: SUSPENSION/PLATE) “inactive; negative”; (Test System: Mouse lymphoma, Strain/Indicator: L5178Y (tk+/tk-), Metabolic Activation: None, Method: Suspension/plate) “active; positive”; (Test System: Mouse lymphoma, Strain/Indicator: L5178Y (tk+/tk-), Metabolic Activation: Rat, Liver, S-9, Aroclor 1254, Method: Suspension/plate) “active; positive”.

On to `CCOP(=S)(OCC)OP(=S)(OCC)OCC`, for which the mutagenic call is “inactive; negative” (Test System: AMES SALMONELLA TYPHIMURIUM, Strain/Indicator: TA97, Metabolic Activation: HAMSTER, LIVER, S-9, AROCLOR 1254 (10%), Method: PREINCUBATION); “inactive; negative” (Test System: AMES SALMONELLA TYPHIMURIUM, Strain/Indicator: TA97, Metabolic Activation: NONE, Method: PREINCUBATION); “inactive; negative” (Test System: AMES SALMONELLA TYPHIMURIUM, Strain/Indicator: TA97, Metabolic Activation: RAT, LIVER, S-9, AROCLOR 1254 (10%), Method: PREINCUBATION); “inactive; negative” (Test System: AMES SALMONELLA TYPHIMURIUM, Strain/Indicator: TA98, Metabolic Activation: HAMSTER, LIVER, S-9, AROCLOR 1254 (10%), Method: PREINCUBATION); “inactive; negative” under setting [1]; “inactive; negative” (Test System: AMES SALMONELLA TYPHIMURIUM, Strain/Indicator: TA98, Metabolic Activation: RAT, LIVER, S-9, AROCLOR 1254 (10%), Method: PREINCUBATION). Moreover, the mutagenic call runs as follows: (Test System: AMES SALMONELLA TYPHIMURIUM, Strain/Indicator: TA100, Metabolic Activation: HAMSTER, LIVER, S-9, AROCLOR 1254 (10%), Method: PREINCUBATION) “inactive; negative”; under setting [2], “inactive; negative”; (Test System: AMES SALMONELLA TYPHIMURIUM, Strain/Indicator: TA100, Metabolic Activation: RAT, LIVER, S-9, AROCLOR 1254 (10%), Method: PREINCUBATION) “inactive; negative”; (Test System: AMES SALMONELLA TYPHIMURIUM, Strain/Indicator: TA1535, Metabolic Activation: HAMSTER, LIVER, S-9, AROCLOR 1254 (5, 10 OR 30%), Method: PREINCUBATION) “active; positive”; (Test System: AMES SALMONELLA TYPHIMURIUM, Strain/Indicator: TA1535, Metabolic Activation: NONE, Method: PREINCUBATION) “inactive; negative”; (Test System: AMES SALMONELLA TYPHIMURIUM, Strain/Indicator: TA1535, Metabolic Activation: RAT, LIVER, S-9, AROCLOR 1254 (10 OR 30%), Method: PREINCUBATION) “inactive; negative”.

`C[C@H](CCC(=O)O)[C@H]1CC[C@H]2[C@@H]3CC[C@@H]4C[C@@H](O)CC[C@]4(C)[C@H]3C[C@H](O)[C@]12C`: the mutagenic call reads like this: (Test System: AMES SALMONELLA TYPHIMURIUM, Strain/Indicator: TA98, Metabolic Activation: NONE, Method: FLUCTUATION TEST) “inactive; negative”; under setting [1], “inactive; negative”; (Test System: AMES SALMONELLA TYPHIMURIUM, Strain/Indicator: TA98, Metabolic Activation: RAT, LIVER, S-9, PCB, Method: PREINCUBATION) “inactive; negative”; (Test System: AMES SALMONELLA TYPHIMURIUM, Strain/Indicator: TA100, Metabolic Activation: NONE, Method: FLUCTUATION TEST) “inactive; negative”.
